For one experiment, the target named is T1, central CCK-B receptor (Cavia porcellus, UniProt H0VZC5).
T1 construct: The cerebral cortices of male albino guinea pigs were therefore used; from tissue; host or cells: cerebral cortex membranes of male albino guinea pigs
T1 sequence (H0VZC5 1-426): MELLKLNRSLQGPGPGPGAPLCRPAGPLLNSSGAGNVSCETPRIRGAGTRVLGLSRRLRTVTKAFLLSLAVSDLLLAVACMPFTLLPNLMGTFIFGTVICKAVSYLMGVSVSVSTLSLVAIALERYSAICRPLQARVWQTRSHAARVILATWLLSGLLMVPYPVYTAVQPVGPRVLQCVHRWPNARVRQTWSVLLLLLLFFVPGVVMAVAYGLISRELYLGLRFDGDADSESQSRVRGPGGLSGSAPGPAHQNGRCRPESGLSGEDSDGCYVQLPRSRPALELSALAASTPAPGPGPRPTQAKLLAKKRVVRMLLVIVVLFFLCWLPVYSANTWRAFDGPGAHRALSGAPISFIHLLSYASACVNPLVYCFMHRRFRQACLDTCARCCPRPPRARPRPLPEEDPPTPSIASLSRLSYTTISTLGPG
Put plainly: Inhibition of binding of [3H][N-methyl-N-leucine]CCK-8 to guinea pig cortical membranes (anti-CCK-B in vitro). The procedure: The capacity of the compounds which are the subject of the invention to interact with the central CCK-B receptor was evaluated with the use of [3-H][N-methyl-N-leucine]CCK-8. […] The cerebral cortices of male albino guinea pigs were therefore used, the method given above being followed with slight modifications [Makovec et al.; Bioorganic & Med. Chem. Letters 3 (5)(1993), 861-866] so as to give a membrane content corresponding to about 300 mcg of protein/mL.

In experiment [1] the test system is acid secretion induced by pentagastrin. The experiment is described as follows: In vivo gastric anti-secretory activity in the anaesthetised rat, pentagastrin stimulation. To be noted: for ED50: iv, read-out: Activity (ID50). The procedure: Gastric secretion was stimulated by pentagastrin and the method of Lai [Gut 5, (1964), 327-341] was used with slight modifications [Makovec et al, J.Med.Chem. 35 (1992), 28-38].
Pentagastrin dissolved in physiological saline was perfused for 120 minutes at a rate of 30 mcg/kg/h. After 60 minutes of perfusion (basal stimulation), the product to be tested was administered intravenously (I.V.) in bolus form, perfusion of the stimulant continuing for the remaining 60 minutes. The activity of the product was evaluated as the percentage reduction in acid secreted after the administration of the product with respect to the basal acidity measured in the first 60 minutes, during which time only pentagastrin was present.
The antagonists tested were administered at different doses in such a way as to enable the ID50 to be calculated, that is, the dose (in mg/kg I.V.) capable of inhibiting the effect of pentagastrin by 50%.

The target in experiment [2] is T2, type-B cholecystokynin (CCK-B) or gastrin receptors (Oryctolagus cuniculus, UniProt P46627).
T2 construct: rabbit gastric mucosa cells were prepared by conventional techniques; endogenous in cells; host or cells: freshly isolated rabbit gastric mucosa cells (collagenase/pronase digestion)
T2 sequence (P46627 1-452): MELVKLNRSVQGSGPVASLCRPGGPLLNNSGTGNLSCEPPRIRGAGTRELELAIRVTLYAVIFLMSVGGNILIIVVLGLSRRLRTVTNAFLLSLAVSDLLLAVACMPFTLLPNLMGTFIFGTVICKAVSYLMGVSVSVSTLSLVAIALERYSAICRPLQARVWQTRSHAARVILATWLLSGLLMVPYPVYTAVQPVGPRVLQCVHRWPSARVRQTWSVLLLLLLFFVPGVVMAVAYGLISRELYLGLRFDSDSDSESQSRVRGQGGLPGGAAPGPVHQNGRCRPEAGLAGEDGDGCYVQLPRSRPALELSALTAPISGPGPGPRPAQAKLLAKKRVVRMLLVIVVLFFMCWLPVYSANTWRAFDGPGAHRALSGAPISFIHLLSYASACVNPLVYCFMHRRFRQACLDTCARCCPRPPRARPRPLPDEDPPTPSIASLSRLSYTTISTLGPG
Put plainly: Inhibition of the gastrin-induced increase of cytosolic calcium in rabbit gastric mucosa cells. Format: cell-based. As to conditions: cells stimulated with 5×10^-8 gastrin, [Ca2+]i. From the text: The parietal cells of the gastric mucosa are responsible for the secretion of HCl. They present specific membrane receptors which may be activated by gastrin and which have been defined as type-B cholecystokynin (CCK-B) or gastrin receptors.
Since it has been observed that the activation of the CCK-B receptors by gastrin results in a raising of the levels of cytosolic calcium ions, a technique has been used for measuring the increase in intracellular calcium induced by gastrin in the presence and absence of the compounds which are the subject of the invention, as an index of the anti-gastrin activity of the compounds themselves.
Suspensions (0.8×10^6 /ml) of rabbit gastric mucosa cells were prepared by conventional techniques with the use of collagenase and pronase as digestive enzymes; the estimation of the [Ca^2+ ]i values, basal or achieved after stimulation of the cell system was carried out in accordance with Grynkiewicz et al [J.Biol.Chem 260 (1985), 3440]. In the control samples the cells were stimulated with […] while in the samples in which the effect of the compounds in question was evaluated, the cells were incubated therewith before stimulation with gastrin. The results are expressed as percentage increases in [Ca^2+ ]i with respect to the control value. The anti-gastrin activity of the compounds was expressed as the IC50 value, that is, the concentration (in μmoles/liter) at which the response to the stimulus induced by the gastrin was reduced by 50%. The results thus obtained for several compounds of the invention are given in Table 3 which also gives an index formed from the ratio between the peripheral anti-gastrin activity just described and the displacement activity derived from the study of binding to the cortical receptors of guinea pigs described above.

The next experiment has as its system CCK-B receptors. To be noted: guinea pigs, Knapp et al. 1990; cited from earlier work.
The mark [3] stands for this setting: displacement of [3H][N-methyl-N-leucine]CCK-8, cortical membrane in guinea pigs, read-out: IC50.
Setting [4] is: I.V. bolus, rat, pentagastrin perfusion.

Like-named read-outs stand apart in the source and are kept apart here. A value given as a limit tells only on which side of the number the result lay.

Data on 14 compounds can be found in patent US5922875A, “Aromatic acid diamides with antigastrin activity, a method for their preparation and their pharmaceutical use” (Rotta Research Laboratorium S.p.A., priority 1995, dated 1999).

The IC50 is the concentration at which inhibition is half-maximal. On to `O=C(O)CC(CC(=O)Nc1cc2ccccc2cc1C(=O)N1CCC2(CCCC2)CC1)c1cccc2ccccc12` (racemic) [Compound 13, 3-(DL)-(1-naphthyl)-5-[2'-carbamoyl(8-azaspiro[4.5]dec-8-yl)]-3'-naphthylamino]-5-oxopentanoic acid], for which the IC50 at central CCK-B receptor (setting [3]) turned out to be 225 nM. In addition, in experiment [1] (ID50 comparison, rat I.V.), the “times more powerful than CR 2194” value is given as 10-50 times and the “times more powerful than cimetidine” value is reported as 2-10 times. Besides, in experiment [1] (setting [4]), the ED50 stood at 1 mg/kg. Also, the IC50 in experiment [2] was determined as 37 nM.

With `O=C(O)CC[C@@H](NC(=O)c1cc(Cl)cc(Cl)c1)C(=O)N1CCC2(CCCC2)CC1` [CR 2194, reference compound], in experiment [1] (setting [4]), the ED50 was determined as 11 mg/kg.

As to `CN/C(=N/CCSCc1nc[nH]c1C)NC#N` [Cimetidine, cimetidine, reference compound], the ED50 in experiment [1] (setting [4]) was found to be 2.5 mg/kg.

As to `Cc1ccc(NC(=O)CC(CC(=O)O)c2cccc3ccccc23)c(C(=O)N2CCC3(CCCC3)CC2)c1` (stereo not shown) [Compound 3], the IC50 at central CCK-B receptor (setting [3]) was found to be 188 nM; in experiment [2], 30 nM.

Turning to `O=C(O)CC(CC(=O)Nc1c(Cl)cccc1C(=O)N1CCC2(CCCC2)CC1)c1cccc2ccccc12` (stereo not shown) [Compound 5], the ED50 in experiment [1] (setting [4]) is 2.6 mg/kg.

Regarding `O=C(O)CC(CC(=O)Nc1cc(Cl)ccc1C(=O)N1CCC2(CCCC2)CC1)c1cccc2ccccc12` (stereo not shown) [Compound 6], the IC50 at central CCK-B receptor (setting [3]) turned out to be 1240 nM; in experiment [2] it was 140 nM.

Take `COc1cc(NC(=O)CC(CC(=O)O)c2cccc3ccccc23)c(C(=O)N2CCC3(CCCC3)CC2)cc1OC` (stereo not shown) [Compound 10]: the IC50 is 820 nM on central CCK-B receptor (setting [3]) and above 300 nM in experiment [2].

For `O=C(O)CCC(NC(=O)c1cccc2ccccc12)C(=O)Nc1cccc(C(=O)N2CCC3(CCCC3)CC2)c1` (stereo not shown) [Compound 12], at central CCK-B receptor (setting [3]), the IC50 is above 1000 nM. In addition, in experiment [1] (setting [4]), the ED50 is above 10 mg/kg.

With `O=C(O)CC(CC(=O)Nc1cc2ccccc2cc1C(=O)N1CCC2(CC1)OCCO2)c1cccc2ccccc12` (stereo not shown) [Compound 14], the IC50 at central CCK-B receptor turned out to be 1080 nM. Besides, in experiment [1] (Rattus norvegicus), the ED50 turned out to be 7.9 mg/kg.

As for `Cc1cc(C)c(NC(=O)CC(CC(=O)O)c2cccc(Cl)c2)c(C(=O)N2CCC3(CCCC3)CC2)c1` (stereo not shown) [Compound 16], the IC50 at central CCK-B receptor (setting [3]) turned out to be 395 nM; in experiment [2], 82 nM.

Take `CN(C(=O)CC(CC(=O)O)c1cccc2ccccc12)c1ccccc1C(=O)N1CCC2(CCCC2)CC1` (stereo not shown) [Compound 17]: on central CCK-B receptor (setting [3]), the concentration for half-maximal inhibition (IC50) was above 1000 nM.

Turning to `O=C(O)CC(CC(=O)Nc1cc2ccccc2cc1C(=O)N1CCC2(CCCCC2)CC1)c1cccc2ccccc12` (stereo not shown) [Compound 18], the IC50 stood at 661 nM at central CCK-B receptor (setting [3]) and 105 nM in experiment [2].

With `CSCC[C@H](NC(=O)[C@H](Cc1c[nH]c2ccccc12)NC(=O)CCNC(=O)OC(C)(C)C)C(=O)N[C@@H](CC(=O)O)C(=O)N[C@@H](Cc1ccccc1)C(N)=O` [Pentagastrin, reference compound], the IC50 on central CCK-B receptor (setting [3]) is 3 nM.

Consider [3-H][N-methyl-N-leucine]CCK-8, for which the “affinity times higher for the receptors of the cortex (CCK-B) than those of the pancreas (CCK-A)” value with CCK-B receptors is on record as “about 4000 times”.
